Data from patent publication US20260085034A1, “N-(BENZHYDRYL)CYCLOALKYLCARBOXAMIDE DERIVATIVES AS INHIBITORS OF GLYCOGEN SYNTHASE 1 (GYS1) AND METHODS OF USE THEREOF” (Maze Therapeutics, Inc., priority 2022, published 2026).

molecular target: T1, recombinant hGYS1/GN1 protein (Homo sapiens, UniProt P13807); assay: GYS1 coupled enzyme assay (PK/LDH); format: biochemical; settings: geometric mean of at least 2 assay runs; NADH absorbance at 340 nm
T1 sequence (P13807 1-737): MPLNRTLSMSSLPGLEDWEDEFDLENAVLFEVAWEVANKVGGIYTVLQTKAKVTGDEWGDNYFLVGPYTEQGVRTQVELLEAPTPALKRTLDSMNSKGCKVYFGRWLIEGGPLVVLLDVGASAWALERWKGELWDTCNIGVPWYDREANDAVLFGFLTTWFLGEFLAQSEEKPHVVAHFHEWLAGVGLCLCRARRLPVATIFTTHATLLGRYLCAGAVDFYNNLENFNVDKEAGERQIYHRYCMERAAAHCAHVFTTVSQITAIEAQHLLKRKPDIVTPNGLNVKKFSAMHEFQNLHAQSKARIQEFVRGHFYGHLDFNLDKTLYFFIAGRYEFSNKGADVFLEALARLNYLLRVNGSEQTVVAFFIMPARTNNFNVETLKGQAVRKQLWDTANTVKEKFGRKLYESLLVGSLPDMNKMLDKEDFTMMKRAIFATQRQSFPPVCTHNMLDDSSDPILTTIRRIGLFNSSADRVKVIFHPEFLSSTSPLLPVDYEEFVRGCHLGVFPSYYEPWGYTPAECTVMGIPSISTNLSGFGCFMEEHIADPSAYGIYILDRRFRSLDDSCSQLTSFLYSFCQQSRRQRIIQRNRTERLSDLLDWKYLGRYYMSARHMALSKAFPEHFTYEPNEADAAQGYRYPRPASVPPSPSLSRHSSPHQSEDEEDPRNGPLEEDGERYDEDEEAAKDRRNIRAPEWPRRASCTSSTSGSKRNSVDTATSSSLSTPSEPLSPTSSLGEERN
T1 sequence (P46976 1-350 partner): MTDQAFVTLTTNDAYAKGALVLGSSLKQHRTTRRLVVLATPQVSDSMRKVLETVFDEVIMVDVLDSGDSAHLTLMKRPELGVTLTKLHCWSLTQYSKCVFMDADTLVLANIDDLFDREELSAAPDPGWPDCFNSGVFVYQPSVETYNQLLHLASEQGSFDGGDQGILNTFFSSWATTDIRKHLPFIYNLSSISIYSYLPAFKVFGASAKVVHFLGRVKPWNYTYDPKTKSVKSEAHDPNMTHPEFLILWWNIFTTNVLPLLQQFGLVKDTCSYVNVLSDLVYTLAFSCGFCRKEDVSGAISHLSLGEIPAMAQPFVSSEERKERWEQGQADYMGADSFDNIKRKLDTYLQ
Source text: The GYS1 coupled enzyme assay is a kinetic biochemical assay that indirectly quantifies the rate of glycogen synthesis by coupling the conversion of GYS1 substrate UDP-glucose into UDP with downstream enzymatic reactions. UDP is released from UDP-glucose as glucose monomers are linked into the growing glycogen strand by GYS1. The coupled assay then proceeds with pyruvate kinase utilizing UDP and phospho(enol)pyruvate (PEP) to form pyruvate. Lactate dehydrogenase then converts pyruvate and NADH into lactate and NAD+. Oxidation of NADH to NAD+ can be measured continuously with a plate reader by quantifying the decrease in NADH absorbance at 340 nm over time.
Compounds that inhibit the hGYS1 enzyme and, subsequently, the downstream conversion of NADH to NAD+, were tested using assay ready plates (black, clear bottom 384 well plates) in a final DMSO reaction volume of 2.5% DMSO. The Assay Buffer contained 50 mM Tris pH 7.5, 2 mM MgCl2, and 100 mM KCl. Fresh stocks of BSA at a final concentration of 0.02% and TCEP at 1 mM were added before splitting buffer into hGYS1 buffer and substrate buffer. To the hGYS1 buffer, rabbit liver glycogen was added at a final concentration of 0.2% glycogen. Glucose-6-Phosphate was added at 1 mM, recombinant hGYS1/GN1 protein was added at 50 nM to the substrate buffer, phosphoenolpyruvate (PEP) was added at 2 mM, UDP-Glucose was added at 0.8 mM, NADH) was added at 0.6 mM, and Pyruvate Kinase/Lactate Dehydrogenase was added at 20 units/mL. The reaction was initiated by mixing hGYS1 buffer and substrate buffer at a 1:1 ratio. Both buffers were plated using a liquid dispensing device with hGYS1 buffer plated first followed by the substrate buffer. Plates were spun briefly to eliminate air bubbles and are immediately read in continuous mode at an absorbance of 340 nm, for 10 time points in one-minute increments, for a total of 10 minutes. The slope from these 10 time points was normalized to the positive and negative control wells. The duplicate % inhibition values are then averaged and fit to a Hill equation for dose response according to the Levenberg-Marquardt algorithm with the Hill equation maximum set to 100 and the minimum set to 0.
The results are shown in Table 3 below, which reports the IC50 of each compound. Unless otherwise specified, IC50 values are reported as the geometric mean of at least 2 assay runs on separate days. Each run represents the average of a technical replicate, where each compound was assayed twice in the same plate. As shown in the table below, the compounds of the present invention are potent inhibitors of human GYS1.

SMILES	IC50
Cc1n[nH]cc1[C@H](NC(=O)C1CC1)c1ccc(C(C)C)cc1 (single isomer, unassigned) [compound 43]	2440 nM
CC(C)c1ccc([C@@H](NC(=O)C2CC2)c2ccccc2NC(=O)[C@@H]2CCN2)cc1 [compound 49, (S)-N-(2-((R)-cyclopropanecarboxamido(4-isopropylphenyl)methyl)phenyl)azetidine-2-carboxamide]	1790 nM
CC(C)c1ccc([C@@H](NC(=O)C2CC2)c2ccccc2Nc2ncco2)cc1 (single isomer, unassigned) [compound 31]	1220 nM
O=C(N[C@@H](c1ccccc1)c1ccc(C2CC2)cc1)C1CC1 [compound 41, (S)-N-((4-cyclopropylphenyl)(phenyl)methyl)cyclopropanecarboxamide]	2060 nM
CC(C)c1ccc([C@@H](NC(=O)C2CC2)c2ccccc2NC(=O)C2CN(CC(F)(F)F)C2)cc1 [compound 23, (R)-N-(2-(cyclopropanecarboxamido(4-isopropylphenyl)methyl)phenyl)-1-(2,2,2-trifluoroethyl)azetidine-3-carboxamide]	1210 nM
CC(C)c1ccc([C@@H](NC(=O)[C@H]2C[C@@H]2F)c2ccccc2NC(=O)C2CCN(C)CC2)cc1 [compound 12, N-(2-((R)-((1R,2S)-2-fluorocyclopropane-1-carboxamido)(4-isopropylphenyl)methyl)phenyl)-1-methylpiperidine-4-carboxamide]	1640 nM
CC(=O)NCC(=O)N[C@H]1CCC[C@H]1C(=O)N[C@@H](c1ccccc1)c1ccc(C(C)C)cc1 [compound 21, (1R,2S)-2-(2-acetamidoacetamido)-N-((S)-(4-isopropylphenyl)(phenyl)methyl)cyclopentane-1-carboxamide]	1530 nM
COC(=O)CCNC(=O)[C@H]1CCC[C@H]1C(=O)N[C@H](c1ccc(C(C)C)cc1)c1ccccc1C [compound 20, methyl 3-((1S,2R)-2-(((R)-(4-isopropylphenyl)(o-tolyl)methyl)carbamoyl)cyclopentane-1-carboxamido)propanoate]	2980 nM
CC(C)c1ccc([C@@H](NC(=O)[C@@H]2CCC[C@@H]2NC(N)=O)c2ccccc2)cc1 [compound 38, (1R,2S)-N-((S)-(4-isopropylphenyl)(phenyl)methyl)-2-ureidocyclopentane-1-carboxamide]	1920 nM
CC(C)c1ccc([C@@H](NC(=O)[C@H]2CCC(O)C2)c2ccccc2)cc1 (stereo partly drawn) [compound 35, (1S)-3-hydroxy-N-((S)-(4-isopropylphenyl)(phenyl)methyl)cyclopentane-1-carboxamide]	1130 nM
CC(=O)N[C@@H](CC(N)=O)C(=O)N[C@H]1CCC[C@H]1C(=O)N[C@@H](c1ccccc1)c1ccc(C(C)C)cc1 [compound 28, (S)-2-acetamido-N^1-((1S,2R)-2-(((S)-(4-isopropylphenyl)(phenyl)methyl)carbamoyl)cyclopentyl)succinamide]	2970 nM
CC(=O)N[C@H]1CCC[C@H]1C(=O)N[C@@H](c1ccccc1)c1ccc(C(C)C)cc1 [compound 55, (1R,2S)-2-acetamido-N-((S)-(4-isopropylphenyl)(phenyl)methyl)cyclopentane-1-carboxamide]	2420 nM
Cc1ccccc1[C@H](NC(=O)C1CC1)c1ccc(C(C)C)cn1 (single isomer, unassigned) [compound 47]	1810 nM
CC(C)c1ccc([C@@H](NC(=O)C2CC2)c2ccccc2NC(=O)C2CN(CC3CC3)C2)cc1 [compound 25, (R)-N-(2-(cyclopropanecarboxamido(4-isopropylphenyl)methyl)phenyl)-1-(cyclopropylmethyl)azetidine-3-carboxamide]	1140 nM
CC(C)c1ccc([C@@H](NC(=O)C2CC2)c2cccc3c2NC(=O)C3)cc1 (single isomer, unassigned) [compound 32]	2000 nM
CC(C)c1ccc([C@@H](NC(=O)C2CC2)c2ccccc2NC2NC(=O)N(C)C2=O)cc1 (stereo partly drawn) [compound 8, N-((1R)-(4-isopropylphenyl)(2-((1-methyl-2,5-dioxoimidazolidin-4-yl)amino)phenyl)methyl)cyclopropanecarboxamide]	295 nM
O=C(N[C@@H](c1ccccc1)c1ccc(C2CCC2)cc1)C1CC1 [compound 40, (S)-N-((4-cyclobutylphenyl)(phenyl)methyl)cyclopropanecarboxamide]	1330 nM
CC(=O)N1CC[C@H]1C(=O)Nc1ccccc1[C@H](NC(=O)C1CC1)c1ccc(C(C)C)cc1 [compound 42, (S)-1-acetyl-N-(2-((R)-cyclopropanecarboxamido(4-isopropylphenyl)methyl)phenyl)azetidine-2-carboxamide]	1480 nM
CNC(=O)[C@H]1CCC[C@H]1C(=O)N[C@H](c1ccc(C(C)C)cc1)c1ccccc1C [compound 16, (1R,2S)-N^1-((R)-(4-isopropylphenyl)(o-tolyl)methyl)-N^2-methylcyclopentane-1,2-dicarboxamide]	1740 nM
CC(C)c1ccc([C@@H](NC(=O)C2CC2)c2ccccc2)nc1 [compound 45, (S)-N-((5-isopropylpyridin-2-yl)(phenyl)methyl)cyclopropanecarboxamide]	2490 nM
Cc1ccccc1[C@H](NC(=O)[C@@H]1CCC[C@@H]1C#N)c1ccc(C(C)C)cc1 [compound 7, (1R,2S)-2-cyano-N-((R)-(4-isopropylphenyl)(o-tolyl)methyl)cyclopentane-1-carboxamide]	1140 nM
NC(=O)Nc1ccccc1[C@H](NC(=O)C1CC1)c1ccc(C2CC2)cc1 (single isomer, unassigned) [compound 17]	2220 nM
CC(=O)Nc1cccc([C@H](NC(=O)C2CC2)c2ccc(C(C)C)cc2)c1 [compound 6, (R)-N-((3-acetamidophenyl)(4-isopropylphenyl)methyl)cyclopropanecarboxamide]	737 nM
COCCN1CC(C(=O)Nc2ccccc2[C@H](NC(=O)C2CC2)c2ccc(C(C)C)cc2)C1 [compound 24, (R)-N-(2-(cyclopropanecarboxamido(4-isopropylphenyl)methyl)phenyl)-1-(2-methoxyethyl)azetidine-3-carboxamide]	1200 nM
Cc1ccccc1[C@H](NC(=O)[C@@H]1CCC[C@@H]1C(N)=O)c1ccc(C(C)C)cc1 [compound 30, (1R,2S)-N^1-((R)-(4-isopropylphenyl)(o-tolyl)methyl)cyclopentane-1,2-dicarboxamide]	1390 nM
COc1ccccc1[C@H](NC(=O)C1CC1)c1ccc(C(C)C)cn1 (single isomer, unassigned) [compound 33]	1420 nM
CC(C)c1ccc([C@@H](NC(=O)[C@H]2CCC(F)C2)c2ccccc2)cc1 (stereo partly drawn) [compound 34, (1S)-3-fluoro-N-((S)-(4-isopropylphenyl)(phenyl)methyl)cyclopentane-1-carboxamide]	778 nM
